Assay results from patent US8309581B2, “Benzimidazole derivatives” (Hoffmann-La Roche Inc., priority 2009, dated 2012).

Biological target: T1, FXR ligand binding domain (Homo sapiens, UniProt Q96RI1)
T1 construct: made in house; host or cells: E. coli BL21 (pLysS)
T1 sequence (Q96RI1 193-472 isoform Q96RI1-2): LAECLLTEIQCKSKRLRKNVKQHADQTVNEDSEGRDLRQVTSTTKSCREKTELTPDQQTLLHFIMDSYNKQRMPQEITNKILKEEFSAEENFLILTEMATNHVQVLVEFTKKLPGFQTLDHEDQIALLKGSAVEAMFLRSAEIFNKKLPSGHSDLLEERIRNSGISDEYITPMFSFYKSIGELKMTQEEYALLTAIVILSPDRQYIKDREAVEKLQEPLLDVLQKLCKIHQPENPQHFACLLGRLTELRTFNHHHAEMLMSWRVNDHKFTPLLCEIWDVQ
Experiment: Radioligand Binding Assay (scintillation proximity radioligand displacement)
Conditions: GST-FXR LBD fusion protein on SPA beads, test compound 6×10^−9 M to 2.5×10^−5 M
In short: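 GST-fused human FXR LBD (aa 193-473, E. coli-expressed, 40 nM) was bound to glutathione SPA beads in 50 mM Hepes pH 7.4, 10 mM NaCl, 5 mM MgCl2, 0.01% CHAPS. Displacement of radioligand (e.g. 20 nM) was measured over 6×10^−9 to 2.5×10^−5 M compound, and IC50 calculated.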

`Fc1cc2nc(-c3ccc(Cl)cc3OCC3CC3)n(Cc3ccc(-c4nnn[nH]4)cc3F)c2cc1F` [Example 89, 2-(4-Chloro-2-cyclopropylmethoxy-phenyl)-5,6-difluoro-1-[2-fluoro-4-(1H-tetrazol-5-yl)-benzyl]-1H-benzoimidazole] was tested. Which IC50 did it give?
Its IC50 is 60 nM.

Which IC50 does the source give for `Fc1cc2nc(-c3ccc(Cl)cc3OCC3CCOCC3)n(Cc3ccc(-c4nnn[nH]4)cc3F)c2cc1F` [Example 90, 2-[4-Chloro-2-(tetrahydro-pyran-4-ylmethoxy)-phenyl]-5,6-difluoro-1-[2-fluoro-4-(1H-tetrazol-5-yl)-benzyl]-1H-benzoimidazole] here?
The IC50 was 1600 nM.

How did the IC50 turn out when `CCCOc1cc(Cl)ccc1-c1nc2cc(F)c(F)cc2n1Cc1ccc(-c2nnn[nH]2)cc1F` [Example 91, 2-(4-Chloro-2-propoxy-phenyl)-5,6-difluoro-1-[2-fluoro-4-(1H-tetrazol-5-yl)-benzyl]-1H-benzoimidazole] was run?
Its IC50 is 50 nM.

Which IC50 does the source give for `Fc1cc2nc(-c3ccc(Cl)cc3OCC3CCC3)n(Cc3ccc(-c4nnn[nH]4)cc3F)c2cc1F` [Example 92, 2-(4-Chloro-2-cyclobutylmethoxy-phenyl)-5,6-difluoro-1-[2-fluoro-4-(1H-tetrazol-5-yl)-benzyl]-1H-benzoimidazole] here?
The IC50 was 20 nM.

For `Fc1cc2nc(-c3ccc(Cl)cc3OCC3CCCCO3)n(Cc3ccc(-c4nnn[nH]4)cc3F)c2cc1F` (centres unmarked) [Example 93, 2-[4-Chloro-2-(tetrahydro-pyran-2-ylmethoxy)-phenyl]-5,6-difluoro-1-[2-fluoro-4-(1H-tetrazol-5-yl)-benzyl]-1H-benzoimidazole], which IC50 is on record?
Its IC50 is 60 nM.

How did the IC50 turn out when `Fc1cc2nc(-c3ccccc3OCC3CCCC3)n(Cc3ccc(-c4nnn[nH]4)cc3F)c2cc1F` [Example 94, 2-(2-Cyclopentylmethoxy-phenyl)-5,6-difluoro-1-[2-fluoro-4-(1H-tetrazol-5-yl)-benzyl]-1H-benzoimidazole] was run?
Its IC50 is 40 nM.

`Fc1cc(-c2nnn[nH]2)ccc1Cn1c(-c2ccc(Cl)cc2OCC2CCCC2)nc2ccccc21` [Example 95, 2-(4-Chloro-2-cyclopentylmethoxy-phenyl)-1-[2-fluoro-4-(1H-tetrazol-5-yl)-benzyl]-1H-benzoimidazole] was tested. Which IC50 did it give?
Its IC50 is 10 nM.

`Fc1cc2nc(-c3ccc(Cl)cc3OC3CCCCC3)n(Cc3ccc(-c4nnn[nH]4)cc3F)c2cc1F` [Example 96, 2-(4-Chloro-2-cyclohexyloxy-phenyl)-5,6-difluoro-1-[2-fluoro-4-(1H-tetrazol-5-yl)-benzyl]-1H-benzoimidazole] was tested. Which IC50 did it give?
Its IC50 is 20 nM.
